Test results as given in paper PMC5761851, “Application of a phenotypic drug discovery strategy to identify biological and chemical starting points for inhibition of TSLP production in lung epithelial cells” (PLoS ONE, 2018).

Legend:
Test in all cases: kinase selectivity panel
Type in all cases: biochemical
Tie2 = target: T1, Tie2 (Homo sapiens, UniProt Q02763); details: for remaining activity at 10 µM: read-out: percentage of control activity (POC), Tie2
T1 construct: purchased Eurofins Pharma Discovery Services (KinaseProfiler; Cerep BioPrint panel)
T1 sequence (Q02763 23-1124): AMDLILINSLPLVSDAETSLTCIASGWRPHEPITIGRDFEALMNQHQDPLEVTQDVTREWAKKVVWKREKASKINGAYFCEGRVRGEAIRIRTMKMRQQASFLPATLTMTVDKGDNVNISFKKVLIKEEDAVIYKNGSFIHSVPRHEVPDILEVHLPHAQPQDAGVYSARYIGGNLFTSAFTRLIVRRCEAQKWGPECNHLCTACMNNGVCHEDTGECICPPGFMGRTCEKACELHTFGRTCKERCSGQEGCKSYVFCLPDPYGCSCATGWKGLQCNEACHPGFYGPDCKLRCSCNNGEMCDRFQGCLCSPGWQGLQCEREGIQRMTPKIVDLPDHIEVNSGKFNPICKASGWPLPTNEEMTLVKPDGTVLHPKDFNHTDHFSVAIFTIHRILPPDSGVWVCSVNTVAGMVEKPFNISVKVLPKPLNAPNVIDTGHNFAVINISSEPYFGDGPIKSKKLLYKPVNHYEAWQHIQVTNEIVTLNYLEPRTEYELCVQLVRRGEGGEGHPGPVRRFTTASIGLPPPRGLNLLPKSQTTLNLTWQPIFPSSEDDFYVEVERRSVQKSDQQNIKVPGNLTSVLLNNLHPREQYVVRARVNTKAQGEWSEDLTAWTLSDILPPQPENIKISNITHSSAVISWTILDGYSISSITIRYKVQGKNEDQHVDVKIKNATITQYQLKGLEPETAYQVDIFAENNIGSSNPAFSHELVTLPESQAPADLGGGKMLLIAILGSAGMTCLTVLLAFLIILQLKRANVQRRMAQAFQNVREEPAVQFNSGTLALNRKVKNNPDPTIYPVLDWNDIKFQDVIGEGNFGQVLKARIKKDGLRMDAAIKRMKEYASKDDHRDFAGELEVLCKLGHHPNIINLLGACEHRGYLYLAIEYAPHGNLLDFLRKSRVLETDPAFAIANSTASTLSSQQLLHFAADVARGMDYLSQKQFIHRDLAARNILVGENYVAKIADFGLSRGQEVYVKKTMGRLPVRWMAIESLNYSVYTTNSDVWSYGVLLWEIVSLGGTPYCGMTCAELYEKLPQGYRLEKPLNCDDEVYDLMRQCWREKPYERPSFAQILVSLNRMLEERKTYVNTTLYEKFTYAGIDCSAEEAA
Procedure, shortened: (§1)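 The compound is screened at 10 μM in duplicate against 125 representative kinases. Selected activities are followed up with a nine-concentration duplicate titration to give IC50.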

Mer = target: T2, Mer (Homo sapiens, UniProt Q12866); details: read-out: percentage of control activity (POC), Mer
T2 construct: purchased Eurofins Pharma Discovery Services (KinaseProfiler; Cerep BioPrint panel)
T2 sequence (Q12866 21-999): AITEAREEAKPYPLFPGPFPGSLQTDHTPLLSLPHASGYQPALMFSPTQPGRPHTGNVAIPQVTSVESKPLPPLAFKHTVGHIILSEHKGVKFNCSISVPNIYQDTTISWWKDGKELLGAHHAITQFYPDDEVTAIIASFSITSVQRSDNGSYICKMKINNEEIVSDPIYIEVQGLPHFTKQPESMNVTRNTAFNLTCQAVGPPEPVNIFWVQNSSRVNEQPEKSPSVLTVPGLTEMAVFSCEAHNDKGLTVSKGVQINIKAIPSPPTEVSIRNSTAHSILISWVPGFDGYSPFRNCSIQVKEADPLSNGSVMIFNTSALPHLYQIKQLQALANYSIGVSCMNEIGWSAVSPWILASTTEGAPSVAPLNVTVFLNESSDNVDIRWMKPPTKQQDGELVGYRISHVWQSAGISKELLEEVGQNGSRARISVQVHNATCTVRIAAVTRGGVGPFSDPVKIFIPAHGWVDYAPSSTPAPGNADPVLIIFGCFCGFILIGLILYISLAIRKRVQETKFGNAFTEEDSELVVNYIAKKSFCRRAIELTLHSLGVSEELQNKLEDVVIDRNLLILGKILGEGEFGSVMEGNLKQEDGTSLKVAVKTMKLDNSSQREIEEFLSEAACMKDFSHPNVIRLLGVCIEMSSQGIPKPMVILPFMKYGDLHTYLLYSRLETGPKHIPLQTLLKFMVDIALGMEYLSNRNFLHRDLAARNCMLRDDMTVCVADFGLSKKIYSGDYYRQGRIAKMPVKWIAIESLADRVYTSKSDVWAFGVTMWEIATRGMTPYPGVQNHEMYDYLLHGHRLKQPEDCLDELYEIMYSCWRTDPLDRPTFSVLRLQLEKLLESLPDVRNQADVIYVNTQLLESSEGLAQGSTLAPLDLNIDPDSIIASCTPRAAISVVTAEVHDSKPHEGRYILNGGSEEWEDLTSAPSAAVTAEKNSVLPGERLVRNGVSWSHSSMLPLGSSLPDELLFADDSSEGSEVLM
Procedure, shortened: as §1

PTK5 = target: T3, PTK5 (Homo sapiens, UniProt P42685); details: for remaining activity at 10 µM: read-out: percentage of control activity (POC), PTK5
T3 construct: purchased Eurofins Pharma Discovery Services (KinaseProfiler; Cerep BioPrint panel)
T3 sequence (P42685 whole entry): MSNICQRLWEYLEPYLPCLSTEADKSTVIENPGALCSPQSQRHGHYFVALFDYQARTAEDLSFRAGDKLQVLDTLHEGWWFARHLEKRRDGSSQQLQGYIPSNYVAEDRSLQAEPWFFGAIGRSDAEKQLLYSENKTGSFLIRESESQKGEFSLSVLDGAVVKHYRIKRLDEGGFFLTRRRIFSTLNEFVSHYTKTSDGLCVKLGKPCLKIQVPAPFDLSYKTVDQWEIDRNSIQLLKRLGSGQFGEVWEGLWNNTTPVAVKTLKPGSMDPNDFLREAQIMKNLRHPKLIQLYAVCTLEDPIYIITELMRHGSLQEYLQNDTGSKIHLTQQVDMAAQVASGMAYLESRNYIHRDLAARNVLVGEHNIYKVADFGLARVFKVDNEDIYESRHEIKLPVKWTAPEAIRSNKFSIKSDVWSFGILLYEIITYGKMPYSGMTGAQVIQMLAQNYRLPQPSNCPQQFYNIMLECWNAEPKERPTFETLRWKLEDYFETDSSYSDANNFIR
Procedure, shortened: as §1

PRAK = target: T4, PRAK (Homo sapiens, UniProt Q8IW41); details: read-out: percentage of control activity (POC), PRAK
T4 construct: purchased Eurofins Pharma Discovery Services (KinaseProfiler; Cerep BioPrint panel)
T4 sequence (Q8IW41 1-473): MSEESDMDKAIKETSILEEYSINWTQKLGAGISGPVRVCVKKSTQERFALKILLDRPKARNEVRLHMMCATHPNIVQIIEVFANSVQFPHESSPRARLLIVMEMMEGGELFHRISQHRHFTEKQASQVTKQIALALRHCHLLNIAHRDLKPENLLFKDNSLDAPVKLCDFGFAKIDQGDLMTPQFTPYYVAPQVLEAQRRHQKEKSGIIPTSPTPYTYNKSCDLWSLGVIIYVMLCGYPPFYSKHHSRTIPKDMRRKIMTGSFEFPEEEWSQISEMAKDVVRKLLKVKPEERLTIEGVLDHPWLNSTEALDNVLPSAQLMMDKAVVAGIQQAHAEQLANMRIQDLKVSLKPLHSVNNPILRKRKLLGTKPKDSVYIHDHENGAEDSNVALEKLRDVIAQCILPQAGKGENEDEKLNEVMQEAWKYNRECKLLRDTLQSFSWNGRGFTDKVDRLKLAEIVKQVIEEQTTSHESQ
Procedure, shortened: as §1

DDR2 = target: T5, DDR2 (Homo sapiens, UniProt Q16832); details: for remaining activity at 10 µM: read-out: percentage of control activity (POC), DDR2
T5 construct: purchased Eurofins Pharma Discovery Services (KinaseProfiler; Cerep BioPrint panel)
T5 sequence (Q16832 22-855): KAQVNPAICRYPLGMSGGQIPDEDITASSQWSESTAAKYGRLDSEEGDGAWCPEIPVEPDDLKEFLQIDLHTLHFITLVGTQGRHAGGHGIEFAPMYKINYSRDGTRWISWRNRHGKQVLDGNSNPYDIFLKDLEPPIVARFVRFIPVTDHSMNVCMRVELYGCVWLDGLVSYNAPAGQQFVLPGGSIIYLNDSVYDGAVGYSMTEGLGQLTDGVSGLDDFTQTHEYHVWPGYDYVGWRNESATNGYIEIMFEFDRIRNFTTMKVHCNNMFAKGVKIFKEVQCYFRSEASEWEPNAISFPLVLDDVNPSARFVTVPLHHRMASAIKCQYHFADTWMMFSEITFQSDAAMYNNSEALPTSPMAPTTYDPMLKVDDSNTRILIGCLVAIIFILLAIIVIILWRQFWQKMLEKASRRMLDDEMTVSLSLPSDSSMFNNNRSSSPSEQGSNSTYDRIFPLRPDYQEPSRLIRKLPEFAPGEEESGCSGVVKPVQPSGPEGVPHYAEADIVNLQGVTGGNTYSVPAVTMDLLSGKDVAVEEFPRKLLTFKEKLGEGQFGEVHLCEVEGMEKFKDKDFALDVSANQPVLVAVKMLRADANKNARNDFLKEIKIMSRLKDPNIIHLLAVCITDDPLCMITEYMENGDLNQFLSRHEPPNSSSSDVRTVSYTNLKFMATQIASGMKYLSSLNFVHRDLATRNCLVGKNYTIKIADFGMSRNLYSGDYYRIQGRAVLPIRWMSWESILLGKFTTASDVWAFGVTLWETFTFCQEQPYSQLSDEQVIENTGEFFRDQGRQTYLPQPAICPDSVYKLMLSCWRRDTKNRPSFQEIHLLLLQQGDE
Procedure, shortened: as §1

SMILES | remaining activity at 10 µM (Tie2) | remaining activity at 10 µM (Mer) | remaining activity at 10 µM (PTK5) | remaining activity at 10 µM (PRAK) | remaining activity at 10 µM (DDR2) | inhibition at 10 µM (Tie2) | inhibition at 10 µM (PTK5) | inhibition at 10 µM (DDR2)
CC(C)(C)N1CCC(c2cc(-c3ccc(F)cc3Cl)c3cc[n+]([O-])c(-c4c(Cl)cccc4Cl)c3n2)CC1 [compound 2] | 79% | 95% | 97% | 107% | 94% |  |  | 
Cn1cc(-c2cccc(-c3nc(C(=O)NC4C5CC6CC4CC(O)(C6)C5)c(N)nc3N)c2)cn1 (centres unmarked) [compound 4] | 76% | 74% | 54% | 83% | 47% |  |  | 53%
CS(=O)(=O)N1CCN(c2ccc(Nc3ncc(C(N)=O)c(NC4CC4)n3)cc2)CC1 [compound 5] | 42% | 1% | 31% | 85% | 28% |  |  | 

Continued, in another order:

remaining activity at 10 µM (Tie2) | remaining activity at 10 µM (Mer) | remaining activity at 10 µM (PTK5) | remaining activity at 10 µM (PRAK) | remaining activity at 10 µM (DDR2) | inhibition at 10 µM (Tie2) | inhibition at 10 µM (PTK5) | SMILES | inhibition at 10 µM (DDR2)
96% | 96% | 56% | 65% | 71% |  |  | Cc1ccc(C(=O)NCC2CC2)cc1-c1ccc2c(c1)NC(=O)C21CCCC1 [compound 3] | 
27% | 100% | 4% | 56% | 3% | 83% | 96% | COc1c(NC(=O)c2ccc(C)c(-c3nnc4c(NCC(C)(C)C)nccn34)c2)cc(C(C)(C)C)cc1NS(C)(=O)=O [compound 7, reference compound] | 97%
